The source of these data is US10053477B2, “Spirocyclic aryl phosphorus oxide and aryl phosphorus sulfide” (QILU PHARMACEUTICAL CO., LTD., priority 2014, dated 2018).

Experiment [1] deals with LU-01-0015 xenotransplantation (PDX) from lung cancer patients. Kind of experiment: In vivo efficacy, LU-01-0015 xenotransplantation (PDX) from lung cancer patients. The following applies: 25 mg/kg orally everyday. Further details: species or system BALB/c nude mice. From the text:
BALB/c nude mice, female, 6 to 8 weeks, about 18 to 22 g bodyweight, was kept in a special environment without pathogens, and a single ventilated cage (5 mice per cage). Beddings and water in all the cages were disinfected before use. […] 80 mice were supplied by Shanghai BK Laboratory Animal Co., LTD for study. Each mouse was subcutaneously implanted tumor tissue (20-30 mm^3) at right flank for growth of tumor. When the average tumor volume reached about 250-300 mm^3, the assay started. Test compounds were delivered orally everyday, 25 mg/kg. Tumor size was measured with two-dimensional caliper every 3 days, size was recorded by mm^3, and calculated by the following formula: V=V=0.5a×b2, where a and b are respectively the long diameter and short diameter length of the tumor. The antitumor efficacy was determined by dividing the average increased tumor volume in compound-treated animal by the average increased tumor volume in untreated animal.

A further experiment deals with T1, ALK L1196M (Homo sapiens, UniProt Q9UM73, L1196M).
T1 construct: purchased Carna Biosciences (Japan)
Kind of experiment: ALK L1196M enzymatic inhibition (HTRF). Conditions: 30 μM ATP. Type of experiment: biochemical. On the procedure: (§1) Enzyme: ALK wild-type, ALK C1156Y and ALK L1196M supplied by Carna Biosciences (Japan), EGFR T790M/L858R supplied by Life technology (Madison, Wis.).
(§2) HTRF kit: supplied by Cis-Bio International, with Eu-marked TK1 antibody, XL665- and biotin-labelled TK1 polypeptide substrates.
Reaction buffer: 50 mM Hepes (pH7.5), 10 mM MgCl2, 0.01 mM NaV3VO4.
(§3) Incubation was carried out for 60 minutes at room temperature. Detection was by Envision.
In general terms: TR-FRET usually uses a lanthanide donor and a delayed reading to cut background.

For another experiment, the target named is T2, EGFR T790M/L858R (Homo sapiens, UniProt P00533, L858R/T790M).
T2 construct: purchased Life technology (Madison, Wis.)
Kind of experiment: EGFR T790M/L858R enzymatic inhibition (HTRF). Format: biochemical. The following applies: 20 μM ATP. On the procedure: as §1, §2
The compound to be tested is diluted at a gradient by 3 times thereby giving 11 gradients starting from […] to 0.017 nM for the final concentration.
10 μl EGFR T790M/L858R enzyme reaction mixture system: 0.08 nM EGFR T790M/L858R, 1 μM biotin-TK1 peptide, 20 μM ATP. Reaction buffer: 50 mM Hepes (pH7.5), 10 mM MgCl2, 0.01 mM NaV3VO4. The reaction plate was white Proxiplate 384-Plus plate (PerkinElmer). Reaction was reacted at room temperature for 60 minutes.
Detecting reaction: 10 μl testing reagent was added to the reaction plate, the final concentration of Antibody was 2 nM, XL665 was 62.5 nM. Incubation was carried out for 60 minutes at room temperature. Detection was by Envision.

The target in the next experiment is T3, ALK C1156Y (Homo sapiens, UniProt Q9UM73, C1156Y).
T3 construct: purchased Carna Biosciences (Japan)
Kind of experiment: ALK C1156Y enzymatic inhibition (HTRF). Type of experiment: biochemical. Conditions: 30 μM ATP. On the procedure:
as §1, §2
Reaction buffer: 50 mM Hepes (pH7.5), 10 mM MgCl2, 0.01 mM NaV3VO4. […] Reaction was reacted at room temperature for 60 minutes.
as §3

The target in a further experiment is T4, ALK wild-type (Homo sapiens, UniProt Q9UM73).
T4 construct: purchased Carna Biosciences (Japan)
In words: ALK wild-type enzymatic inhibition (HTRF). Type of experiment: biochemical. The following applies: 30 μM ATP. On the procedure: as §1, §2
10 μl wild-type ALK enzyme reaction mixture system: 0.5 nM wild-type ALK, 1 μM biotin-TK1 peptide, 30 μM ATP. Reaction buffer: 50 mM Hepes (pH7.5), 10 mM MgCl2, 0.01 mM NaV3VO4.
as §3

T2 sequence (P00533 25-1210 T790M/L858R): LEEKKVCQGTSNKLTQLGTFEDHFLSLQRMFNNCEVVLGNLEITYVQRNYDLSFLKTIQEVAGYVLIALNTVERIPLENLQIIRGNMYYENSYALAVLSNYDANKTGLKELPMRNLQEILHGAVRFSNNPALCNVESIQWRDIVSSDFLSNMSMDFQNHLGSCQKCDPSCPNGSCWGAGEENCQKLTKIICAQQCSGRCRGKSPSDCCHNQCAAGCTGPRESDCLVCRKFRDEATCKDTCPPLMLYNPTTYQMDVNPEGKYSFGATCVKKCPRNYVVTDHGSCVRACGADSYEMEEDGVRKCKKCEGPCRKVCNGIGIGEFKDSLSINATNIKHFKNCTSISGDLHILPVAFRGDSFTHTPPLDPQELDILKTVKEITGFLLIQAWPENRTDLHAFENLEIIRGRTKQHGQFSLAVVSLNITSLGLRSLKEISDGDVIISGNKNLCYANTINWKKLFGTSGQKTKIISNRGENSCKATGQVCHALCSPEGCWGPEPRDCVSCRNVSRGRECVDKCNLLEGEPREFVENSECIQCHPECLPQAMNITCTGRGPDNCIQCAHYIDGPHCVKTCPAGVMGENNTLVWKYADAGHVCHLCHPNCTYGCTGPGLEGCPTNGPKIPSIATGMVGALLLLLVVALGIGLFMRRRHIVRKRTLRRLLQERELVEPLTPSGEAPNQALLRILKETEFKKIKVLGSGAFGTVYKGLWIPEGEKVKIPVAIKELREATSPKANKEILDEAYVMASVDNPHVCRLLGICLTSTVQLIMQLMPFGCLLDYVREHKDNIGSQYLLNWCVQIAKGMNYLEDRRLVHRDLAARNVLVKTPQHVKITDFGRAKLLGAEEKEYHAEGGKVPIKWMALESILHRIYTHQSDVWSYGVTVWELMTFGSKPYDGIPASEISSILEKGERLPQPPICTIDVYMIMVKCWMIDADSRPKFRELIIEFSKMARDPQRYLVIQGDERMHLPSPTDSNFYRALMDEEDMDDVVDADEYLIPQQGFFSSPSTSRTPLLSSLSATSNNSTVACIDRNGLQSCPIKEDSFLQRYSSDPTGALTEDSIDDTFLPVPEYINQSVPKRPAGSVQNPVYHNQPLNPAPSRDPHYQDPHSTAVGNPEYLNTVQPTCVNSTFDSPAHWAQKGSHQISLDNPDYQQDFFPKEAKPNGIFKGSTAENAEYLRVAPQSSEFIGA
T3 sequence (Q9UM73 19-1620 C1156Y): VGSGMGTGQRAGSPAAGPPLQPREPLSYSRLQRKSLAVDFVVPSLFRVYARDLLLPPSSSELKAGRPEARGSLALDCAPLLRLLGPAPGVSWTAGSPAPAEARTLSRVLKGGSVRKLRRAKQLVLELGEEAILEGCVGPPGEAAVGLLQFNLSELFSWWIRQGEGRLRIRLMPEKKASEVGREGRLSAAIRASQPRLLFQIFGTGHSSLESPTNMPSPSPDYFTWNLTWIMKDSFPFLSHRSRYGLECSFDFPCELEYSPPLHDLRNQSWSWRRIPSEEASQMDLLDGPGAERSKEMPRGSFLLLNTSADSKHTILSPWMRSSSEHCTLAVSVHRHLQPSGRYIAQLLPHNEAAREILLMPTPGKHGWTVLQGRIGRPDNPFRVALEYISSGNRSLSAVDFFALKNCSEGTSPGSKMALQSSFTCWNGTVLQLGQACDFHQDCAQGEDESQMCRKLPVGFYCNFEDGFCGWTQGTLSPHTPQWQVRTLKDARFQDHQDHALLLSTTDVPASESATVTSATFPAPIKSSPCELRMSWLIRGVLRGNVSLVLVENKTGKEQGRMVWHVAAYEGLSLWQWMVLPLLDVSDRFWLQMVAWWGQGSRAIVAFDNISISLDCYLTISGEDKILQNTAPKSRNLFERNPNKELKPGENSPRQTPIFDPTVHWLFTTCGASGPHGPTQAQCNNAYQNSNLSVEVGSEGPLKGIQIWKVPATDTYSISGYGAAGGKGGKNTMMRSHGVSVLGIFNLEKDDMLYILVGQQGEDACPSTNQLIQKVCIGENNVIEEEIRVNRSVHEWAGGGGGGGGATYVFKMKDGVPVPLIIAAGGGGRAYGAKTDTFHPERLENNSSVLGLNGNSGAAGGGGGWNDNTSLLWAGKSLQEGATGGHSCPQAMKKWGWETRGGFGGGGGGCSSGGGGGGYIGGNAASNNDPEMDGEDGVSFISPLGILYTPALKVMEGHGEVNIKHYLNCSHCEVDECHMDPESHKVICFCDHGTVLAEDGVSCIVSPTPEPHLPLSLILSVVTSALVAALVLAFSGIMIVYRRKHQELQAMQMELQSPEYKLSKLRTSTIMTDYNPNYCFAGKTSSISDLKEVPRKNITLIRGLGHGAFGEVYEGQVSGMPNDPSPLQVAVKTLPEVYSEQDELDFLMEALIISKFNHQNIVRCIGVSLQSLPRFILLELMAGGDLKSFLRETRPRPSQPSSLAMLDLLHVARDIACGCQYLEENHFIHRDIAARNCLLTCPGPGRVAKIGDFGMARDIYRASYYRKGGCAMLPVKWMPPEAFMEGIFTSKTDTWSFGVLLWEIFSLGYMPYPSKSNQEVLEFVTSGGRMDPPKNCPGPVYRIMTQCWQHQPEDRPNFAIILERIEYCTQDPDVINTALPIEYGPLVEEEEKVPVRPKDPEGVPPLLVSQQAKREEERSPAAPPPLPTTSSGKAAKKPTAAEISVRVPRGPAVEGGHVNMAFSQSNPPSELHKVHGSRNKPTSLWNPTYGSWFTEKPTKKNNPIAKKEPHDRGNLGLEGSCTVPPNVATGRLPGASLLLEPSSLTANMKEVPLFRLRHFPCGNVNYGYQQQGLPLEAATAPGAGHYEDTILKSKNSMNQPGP
T4 sequence (Q9UM73 19-1620): as the sequence (Q9UM73 19-1620 C1156Y) above, with Y1138C counted along it
T1 sequence (Q9UM73 19-1620 L1196M): as the sequence (Q9UM73 19-1620 C1156Y) above, with Y1138C, L1178M counted along it

The term IC50 denotes the concentration at which inhibition is half-maximal. A high value points to a need for much substance. On to `COc1cc(N2CCC3(CC2)CN(C)C3)ccc1Nc1ncc(Cl)c(Nc2ccccc2P(C)(C)=O)n1` [Compound 5, (2-((5-Chloro-2-((2-methoxy-4-(2-methyl-2,7-diazaspiro[3.5]nonan-7-yl)phenyl)amino)pyrimidin-4-yl)amino)phenyl)dimethyl phosphine oxide], for which the Tumor volume came to 259 mm^3 in experiment [1] (3 days); 214 mm^3 in experiment [1] (6 days); 172 mm^3 in experiment [1] (9 days); 117 mm^3 in experiment [1] (12 days); 104 mm^3 in experiment [1] (16 days); 123 mm^3 in experiment [1] (19 days). The same compound returned a Tumor volume in experiment [1] (23 days) of 124 mm^3. The IC50 against ALK L1196M, at EGFR T790M/L858R, against ALK C1156Y and against ALK wild-type was 1 to 100 nM in each case.

On to `COc1cc(C2CC3(CCN(C)CC3)C2)c(F)cc1Nc1ncc(Cl)c(Nc2ccccc2P(C)(C)=O)n1` [Compound 29, (2-((5-Chloro-2-((5-fluoro-2-methoxy-4-(7-methyl-7-azaspiro[3.5]nonan-2-yl)phenyl)amino)pyrimidin-4-yl)amino)phenyl)dimethyl phosphine oxide], for which the concentration for half-maximal inhibition (IC50) at ALK L1196M, on EGFR T790M/L858R, on ALK C1156Y and at ALK wild-type was 1 to 100 nM throughout.

Turning to `COc1cc(N2CCC3(CCN(C)CC3)CC2)c(Br)cc1Nc1ncc(Cl)c(Nc2ccccc2P(C)(C)=O)n1` [Compound 21, (2-((2-((5-Bromo-2-methoxy-4-(9-methyl-3,9-diazaspiro[5.5]undecan-3-yl)phenyl)amino)-5-chloropyrimidin-4-yl)amino)phenyl)dimethyl phosphine oxide], the IC50 on ALK L1196M, against EGFR T790M/L858R, against ALK C1156Y and at ALK wild-type was 1 to 100 nM in each case.

As to `COc1cc(N2CCC3(CCN(C)CC3)CC2)ccc1Nc1ncnc(Nc2ccccc2P(C)(C)=O)n1` [Compound 16, (2-((4-((2-Methoxy-4-(9-methyl-3,9-diazaspiro[5.5]undecan-3-yl)phenyl)amino)-1,3,5-triazin-2-yl)amino)phenyl)dimethyl phosphine oxide], the IC50 fell in the range of 101 to 1000 nM on ALK L1196M, 1 to 100 nM against EGFR T790M/L858R, 101 to 1000 nM against ALK C1156Y and 101 to 1000 nM at ALK wild-type.

Consider `COc1ccc(C2CC3(CC(=O)N(C)C3)C2)cc1Nc1ncc(Cl)c(Nc2ccccc2P(C)(C)=O)n1` (stereo not shown) [Compound 2, 2-(3-((5-Chloro-4-((2-(dimethylphosphoryl)phenyl)amino)pyrimidin-2-yl)amino)-4-methoxyphen-yl)-6-methyl-6-azaspiro[3.4]octan-7-one], for which the half-inhibitory concentration (IC50) against ALK L1196M, against EGFR T790M/L858R, against ALK C1156Y and at ALK wild-type was 101 to 1000 nM in each case.

Turning to `COc1cc(N2CCC3(CN(C)C3)C2)ccc1Nc1ncc(Cl)c(Nc2ccccc2P(C)(C)=O)n1` [Compound 7, (2-((5-Chloro-2-((2-methoxy-4-(2-methyl-2,6-diazaspiro[3.4]octan-6-yl)phenyl)amino)pyrimidin-4-yl)amino)phenyl)dimethyl phosphine oxide], the IC50 against ALK L1196M was in the range of 101 to 1000 nM; against EGFR T790M/L858R, 101 to 1000 nM; at ALK C1156Y it was 101 to 1000 nM; at ALK wild-type it was 1 to 100 nM.

For the compound `COc1cc(N2CCC3(CC2)CCN(C(C)C)CC3)ccc1Nc1ncc(Cl)c(Nc2ccccc2P(C)(C)=O)n1` [Compound 10, (2-((5-Chloro-2-((4-(9-isopropyl-3,9-diazaspiro[5.5]undecan-3-yl)-2-methoxyphenyl)amino)pyrimidin-4-yl)amino)phenyl)dimethyl phosphine oxide], the IC50 on ALK L1196M, on EGFR T790M/L858R, at ALK C1156Y and against ALK wild-type was 1 to 100 nM each time.

Regarding `COc1cc(N2CCC3(CCC(N(C)C)CC3)CC2)ccc1Nc1ncc(Cl)c(Nc2ccccc2P(C)(C)=O)n1` [Compound 14, (2-((5-Chloro-2-((4-(9-(dimethylamino)-3-azaspiro[5.5]undecan-3-yl)-2-methoxyphenyl)amino)pyrimidin-4-yl)amino)phenyl)dimethyl phosphine oxide], the IC50 at ALK L1196M, against EGFR T790M/L858R, on ALK C1156Y and against ALK wild-type was 1 to 100 nM throughout.

As for `CN1CCC2(CCC(c3ccc(Nc4ncc(Cl)c(Nc5ccccc5P(C)(C)=O)n4)c(OC(F)F)c3)CC2)CC1` [Compound 28, (2-((5-Chloro-2-((2-(difluoromethoxy)-4-(3-methyl-3-azaspiro[5.5]undecan-9-yl)phenyl)amino)pyrimidin-4-yl)amino)phenyl)dimethyl phosphine oxide], the half-inhibitory concentration (IC50) on ALK L1196M, on EGFR T790M/L858R, against ALK C1156Y and on ALK wild-type was 1 to 100 nM each time.

Take `COc1cc(N2CCC3(CC2)CC(N(C)C)C3)ccc1Nc1ncc(Cl)c(Nc2ccccc2P(C)(C)=O)n1` [Compound 13, (2-((5-Chloro-2-((4-(2-(dimethylamino)-7-azaspiro[3.5]nonan-7-yl)-2-methoxyphenyl)amino)pyrimidin-4-yl)amino)phenyl)dimethyl phosphine oxide]: the IC50 on ALK L1196M, at EGFR T790M/L858R, against ALK C1156Y and against ALK wild-type was 1 to 100 nM in each case.

As to `COc1cc(N2CCC3(CCN(C)CC3)CC2)ccc1Nc1nc(Nc2ccccc2P(C)(C)=O)c2cc[nH]c2n1` [Compound 17, (2-((2-(amino)-7H-pyrrolo[2,3-D](2-methoxy-4-(9-methyl-3,9-diazaspiro[5.5]undecan-3-yl)phenyl)pyrimidin-4-yl)amino)phenyl)dimethyl phosphine oxide], the 50% inhibitory concentration (IC50) against ALK L1196M, against EGFR T790M/L858R, on ALK C1156Y and against ALK wild-type was 1 to 100 nM in each case.

For the compound `COc1ccc(C2CC3(CCN(C)C3)C2)cc1Nc1ncc(Cl)c(Nc2ccccc2P(C)(C)=O)n1` (stereo not shown) [Compound 1, (2-((5-chloro-2-((2-methoxy-5-(6-methyl-6-azaspiro[3.4]octan-2-yl)phenyl)amino)pyrimidin-4-yl)amino)phenyl)dimethylphosphine oxide], the concentration for half-maximal inhibition (IC50) against ALK L1196M was in the range of 101 to 1000 nM; at EGFR T790M/L858R, 101 to 1000 nM; against ALK C1156Y, 101 to 1000 nM; at ALK wild-type, 1 to 100 nM.
